ChEMBL document CHEMBL1201862, “PubChem BioAssay data set” (2004)
Active and inactive are the calls of the source. Rule as the data show it, for most assays here: actives have a measured EC50 and inactives only a lower limit.

Assays:
Insulin-degrading enzyme = biological target: T1, Insulin-degrading enzyme (Homo sapiens, UniProt P14735); experiment: Dose Response: Fluorescence polarization-based cell-based high throughput dose response assay for inhibitors of insulin-degrading enzyme (IDE). [Related pubchem assays: 434962 (Primary screen (IDE inhibitors in singlicate)), 449730 (Counterscreen (Cytotoxicity in triplicate)), 435028 (Confirmation (IDE inhibitors in triplicate)), 434984 (Summary …; format: functional
T1 sequence (P14735 whole entry): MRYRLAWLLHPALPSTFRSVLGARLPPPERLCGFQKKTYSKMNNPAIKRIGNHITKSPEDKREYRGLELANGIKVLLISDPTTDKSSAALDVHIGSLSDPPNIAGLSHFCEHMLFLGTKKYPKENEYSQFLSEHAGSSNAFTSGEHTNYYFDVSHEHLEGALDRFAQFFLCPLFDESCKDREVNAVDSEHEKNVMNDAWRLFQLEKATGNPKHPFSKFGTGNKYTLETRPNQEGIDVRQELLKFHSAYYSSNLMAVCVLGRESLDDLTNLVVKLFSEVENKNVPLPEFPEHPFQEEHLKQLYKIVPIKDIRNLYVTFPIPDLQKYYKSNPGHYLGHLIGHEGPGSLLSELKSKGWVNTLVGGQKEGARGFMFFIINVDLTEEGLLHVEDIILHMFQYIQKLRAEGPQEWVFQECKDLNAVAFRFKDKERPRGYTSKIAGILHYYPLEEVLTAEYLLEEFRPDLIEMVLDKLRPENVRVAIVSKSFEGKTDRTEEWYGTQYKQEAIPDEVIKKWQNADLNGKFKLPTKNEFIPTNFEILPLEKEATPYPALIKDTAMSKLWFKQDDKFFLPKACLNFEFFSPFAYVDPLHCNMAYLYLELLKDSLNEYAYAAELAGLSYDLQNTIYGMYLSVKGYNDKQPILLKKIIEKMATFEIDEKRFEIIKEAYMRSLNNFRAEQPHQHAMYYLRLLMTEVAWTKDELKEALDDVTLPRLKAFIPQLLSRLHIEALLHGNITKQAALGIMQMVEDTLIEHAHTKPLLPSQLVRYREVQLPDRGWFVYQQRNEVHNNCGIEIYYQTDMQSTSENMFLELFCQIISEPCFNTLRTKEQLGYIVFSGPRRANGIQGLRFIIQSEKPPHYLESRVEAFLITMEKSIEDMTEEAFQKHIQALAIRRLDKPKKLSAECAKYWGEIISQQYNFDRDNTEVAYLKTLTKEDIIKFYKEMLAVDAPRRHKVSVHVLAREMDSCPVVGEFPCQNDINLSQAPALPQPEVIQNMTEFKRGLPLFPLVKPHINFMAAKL

[1] = Counterscreen for IDE inhibitors: Luminescence-based cell-based high throughput dose response assay to identify compounds that are cytotoxic to HEK cells. [Related pubchem assays: 434962 (Primary screen (IDE inhibitors in singlicate)), 449730 (Counterscreen (Cytotoxicity in triplicate)), 435028 (Confirmation (IDE inhibitors in triplicate)) …; format: functional; details: HEK293
[2] = biological target: T2, Rac GTPase-activating protein 1 (Homo sapiens, UniProt Q9H0H5); experiment: MgcRacGAP GTPase-activating activity inhibitors, confirmation, biochemical, ADP Hunter fluorescence, primary and confirmatory (AID 624330); format: functional
T2 sequence (Q9H0H5 whole entry): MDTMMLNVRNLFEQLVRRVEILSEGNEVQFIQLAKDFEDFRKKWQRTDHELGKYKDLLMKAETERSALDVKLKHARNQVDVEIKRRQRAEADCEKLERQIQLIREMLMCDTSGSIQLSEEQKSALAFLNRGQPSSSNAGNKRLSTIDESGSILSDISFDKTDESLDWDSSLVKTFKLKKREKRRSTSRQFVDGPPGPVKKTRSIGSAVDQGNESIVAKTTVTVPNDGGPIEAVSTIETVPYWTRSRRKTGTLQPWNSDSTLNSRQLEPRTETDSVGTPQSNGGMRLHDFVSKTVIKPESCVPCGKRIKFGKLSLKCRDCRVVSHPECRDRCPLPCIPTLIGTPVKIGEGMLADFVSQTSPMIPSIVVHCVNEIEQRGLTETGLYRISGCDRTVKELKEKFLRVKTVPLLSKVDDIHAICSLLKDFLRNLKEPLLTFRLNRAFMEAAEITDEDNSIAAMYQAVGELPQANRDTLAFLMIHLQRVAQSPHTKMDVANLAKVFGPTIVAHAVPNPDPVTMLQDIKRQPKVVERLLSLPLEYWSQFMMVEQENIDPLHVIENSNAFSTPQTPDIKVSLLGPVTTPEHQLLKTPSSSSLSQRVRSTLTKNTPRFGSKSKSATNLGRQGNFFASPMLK

[3] = HeLa cell cytotoxicity, dose response, cytotoxicity control for MgcRacGAP inhibitor project (AID 624300); format: functional
INS1 = experiment: beta cell apoptosis inhibitors, cytokine rescue, dose response, luminescence, retest (AID 449756); format: functional, cell-based; details: Rattus norvegicus;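 also: cell death triggered by IL-1 beta plus TNF-alpha plus IFN-gamma mixture; protective hits raise ATP signal compared with cytokine alone wells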
[4] = inhibitors of SNCA 5'UTR-driven reporter translation, confirmation, H4 neuroglioma cells, luminescence (AID 1988); format: functional, cell-based
[5] = growth suppression of PTEN-null colon cells, dose response, cell-based, HCT116 PTEN knockout (AID 1047); format: functional;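 also: HCT116 colon tumor cells with PTEN knocked out; cells exposed to compound for 60 hours before readout; potency for loss of cell viability measured by luminescence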
[6] = Luminescence-based counterscreen assay for KLF5 inhibitors: dose response cell-based high throughput screening assay to identify cytotoxic compounds using the IEC-6 intestinal epithelial cell line. [Related pubchem assays: 1700 (Primary screen.), 1834 (Confirmation screen.), 1858 (Summary AID.), 1905 (Counterscreen.)]; format: functional
[7] = biological target: T3, Mannose-6-phosphate isomerase (Homo sapiens, UniProt P34949); experiment: human PMI inhibitors, high substrate, primary screen, biochemical, fluorescence intensity, high mannose 6-phosphate (AID 1220)
T3 sequence (P34949 whole entry): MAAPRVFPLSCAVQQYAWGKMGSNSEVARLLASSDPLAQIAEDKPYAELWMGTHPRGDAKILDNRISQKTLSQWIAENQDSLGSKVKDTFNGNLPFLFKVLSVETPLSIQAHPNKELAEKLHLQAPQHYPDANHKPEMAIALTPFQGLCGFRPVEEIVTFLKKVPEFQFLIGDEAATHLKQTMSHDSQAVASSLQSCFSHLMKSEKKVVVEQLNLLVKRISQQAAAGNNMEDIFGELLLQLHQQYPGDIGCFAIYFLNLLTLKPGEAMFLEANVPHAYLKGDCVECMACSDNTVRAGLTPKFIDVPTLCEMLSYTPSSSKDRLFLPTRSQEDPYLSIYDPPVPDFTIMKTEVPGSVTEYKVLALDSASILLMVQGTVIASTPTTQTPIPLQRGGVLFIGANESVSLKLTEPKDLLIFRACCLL

Streptococcus = experiment: Group A Streptococcus viability loss, dose response, counter-screen for streptokinase expression inhibitor project, luminescence, BacTiterGlo (AID 1915); format: functional, organism-based;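 also: potency for reduction of bacterial viability or growth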
[8] = growth suppression of beta-catenin-knockout colon cells, dose response, cell-based, HCT116, human colon tumor (AID 1045); format: functional;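 also: HCT116 colon tumor cells with beta catenin knocked out; cells exposed to compound for 60 hours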
[9] = system: Streptococcus sp. 'group A'; experiment: growth inhibition of control SK(-) GAS strain, dose response, counter-screen for streptokinase expression inhibitor project, luminescence, kanamycin, BacTiterGlo, confirmation (AID 1900); format: functional, organism-based
Protein RecA = biological target: T4, Protein RecA (Mycobacterium tuberculosis, UniProt P9WHJ3); experiment: Fluorescence Cell-Free Homogeneous Dose Retest to Identify Inhibitors of RecA-Intein Splicing Activity. [Related pubchem assays (depositor defined):AID2097, AID2223, AID489010, AID492950]; format: functional
T4 sequence (P9WHJ3 whole entry): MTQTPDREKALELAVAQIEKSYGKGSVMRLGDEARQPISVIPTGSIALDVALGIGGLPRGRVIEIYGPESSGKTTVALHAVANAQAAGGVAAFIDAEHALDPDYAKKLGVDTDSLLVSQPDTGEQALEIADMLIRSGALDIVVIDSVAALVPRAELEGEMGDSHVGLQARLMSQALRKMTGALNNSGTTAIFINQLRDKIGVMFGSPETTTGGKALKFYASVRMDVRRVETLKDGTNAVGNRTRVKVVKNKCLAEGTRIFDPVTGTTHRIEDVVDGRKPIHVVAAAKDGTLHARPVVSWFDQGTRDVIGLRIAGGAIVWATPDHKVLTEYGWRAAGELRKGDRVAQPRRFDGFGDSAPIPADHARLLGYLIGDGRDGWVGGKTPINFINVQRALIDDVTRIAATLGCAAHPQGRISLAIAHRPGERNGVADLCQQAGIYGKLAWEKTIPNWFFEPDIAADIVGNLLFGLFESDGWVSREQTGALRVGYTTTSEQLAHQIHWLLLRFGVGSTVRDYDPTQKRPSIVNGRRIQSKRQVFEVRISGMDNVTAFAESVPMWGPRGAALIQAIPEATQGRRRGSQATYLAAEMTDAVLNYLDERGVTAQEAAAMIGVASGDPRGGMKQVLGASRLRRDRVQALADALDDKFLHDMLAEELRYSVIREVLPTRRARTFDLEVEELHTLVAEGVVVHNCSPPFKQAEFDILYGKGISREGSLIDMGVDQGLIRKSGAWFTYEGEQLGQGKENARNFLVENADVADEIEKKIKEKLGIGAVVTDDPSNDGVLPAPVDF

BJ = experiment: cytotoxicity toward Ras-transformed BJeLR fibroblasts, dose response, cell-based, alamar blue fluorescence, cherrypicked samples (AID 2631); format: functional; details: Homo sapiens;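 also: confirmatory dose-response assay in RAS-dependent BJ fibroblasts engineered with TERT, LT and ST, with cytotoxicity read by fluorescence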
[10] = NIH-3T3 fibroblast cytotoxicity, dose response, cytotoxicity control, cell-based, fluorescence, Alamar Blue, secondary assay (AID 2327); format: functional;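 also: NIH-3T3 mouse fibroblasts cultured with fluconazole at 8 µg/mL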
[11] = biological target: T5, Replicative DNA helicase DnaB (Mycobacterium tuberculosis, UniProt P9WMR3); experiment: DnaB intein splicing inhibitors, dose response, biochemical, cell-free fluorescence (AID 449749); format: functional
T5 sequence (P9WMR3 whole entry): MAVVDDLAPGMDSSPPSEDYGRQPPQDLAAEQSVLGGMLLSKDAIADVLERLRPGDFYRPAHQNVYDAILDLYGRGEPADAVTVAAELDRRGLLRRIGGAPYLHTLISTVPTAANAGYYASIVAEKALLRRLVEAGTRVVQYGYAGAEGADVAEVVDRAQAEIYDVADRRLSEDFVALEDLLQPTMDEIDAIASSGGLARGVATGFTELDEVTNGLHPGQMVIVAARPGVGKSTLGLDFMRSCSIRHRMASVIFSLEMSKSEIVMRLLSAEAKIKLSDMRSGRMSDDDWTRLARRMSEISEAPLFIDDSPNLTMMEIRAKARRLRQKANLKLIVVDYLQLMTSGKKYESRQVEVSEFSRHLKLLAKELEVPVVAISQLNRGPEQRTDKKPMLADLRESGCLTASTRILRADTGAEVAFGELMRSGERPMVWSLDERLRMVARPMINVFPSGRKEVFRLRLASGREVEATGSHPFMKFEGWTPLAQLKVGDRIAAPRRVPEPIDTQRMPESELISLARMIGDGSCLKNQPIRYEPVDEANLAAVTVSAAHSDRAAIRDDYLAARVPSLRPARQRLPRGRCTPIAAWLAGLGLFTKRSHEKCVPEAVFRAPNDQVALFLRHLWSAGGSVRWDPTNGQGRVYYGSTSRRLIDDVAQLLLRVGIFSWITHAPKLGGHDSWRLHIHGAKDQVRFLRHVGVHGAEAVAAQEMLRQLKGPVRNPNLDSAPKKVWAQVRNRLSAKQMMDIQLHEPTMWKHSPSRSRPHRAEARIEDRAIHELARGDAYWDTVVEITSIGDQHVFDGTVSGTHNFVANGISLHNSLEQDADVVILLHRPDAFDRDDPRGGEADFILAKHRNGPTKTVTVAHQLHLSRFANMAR

[12] = Luminescence Cell-Based Dose Response HTS to Identify Inhibitors of 5'UTR Stem-Loop Driven Prion Protein mRNA Translation in H4 Neuroglioblastoma Cells. [Related pubchem assays: 1827 (Project Summary), 1813 (Primary HTS)]; format: functional
[13] = C. albicans growth with fluconazole, confirmation, fluorescence, retest (AID 2467); format: functional, cell-based
Streptokinase A = biological target: T6, Streptokinase A (Streptococcus pyogenes serotype M1, UniProt P10520); experiment: S. pyogenes streptokinase expression inhibitors, potency, dose response, plasminogen activation absorbance, OD405 (AID 1914); format: functional, Streptococcus pyogenes M1 GAS;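 also: secreted streptokinase activity via plasminogen activation per viability signal from cell pellet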
T6 sequence (P10520 whole entry): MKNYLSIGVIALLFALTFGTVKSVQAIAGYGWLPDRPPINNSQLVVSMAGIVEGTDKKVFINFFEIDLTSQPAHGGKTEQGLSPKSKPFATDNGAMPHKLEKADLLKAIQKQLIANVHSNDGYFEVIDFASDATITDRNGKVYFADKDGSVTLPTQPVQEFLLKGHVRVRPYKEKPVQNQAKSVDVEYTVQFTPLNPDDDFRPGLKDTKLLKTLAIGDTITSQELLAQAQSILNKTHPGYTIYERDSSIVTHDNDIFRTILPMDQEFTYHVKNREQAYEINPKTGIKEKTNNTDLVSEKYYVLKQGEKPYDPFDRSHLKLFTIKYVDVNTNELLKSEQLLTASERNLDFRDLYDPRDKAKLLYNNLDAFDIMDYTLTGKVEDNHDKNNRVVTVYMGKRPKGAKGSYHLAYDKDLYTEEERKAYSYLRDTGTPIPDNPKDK

cells = format: functional, cell-based
[14] = inhibitors of firefly luciferase expression or activity, dose response, H4 neuroglioma cells, luminescence (AID 1990); format: functional, cell-based
[15] = inhibitors of SNCA 5'UTR-driven translation, confirmation, luminescence, H4 neuroglioblastoma cells, dose confirmation (AID 2454); format: functional, cell-based;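 also: H4 neuroglioblastoma cells carrying an alpha-synuclein 5'UTR luciferase reporter; potency for inhibition of the luciferase signal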
[16] = microbe, parasite or virus in culture; format: functional; details: Mycobacterium tuberculosis
[17] = luciferase reporter signal reduction – luminescence, H4-C neuroglioblastoma cells, dose response (AID 2458); format: functional, cell-based;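 also: H4 neuroglioblastoma cells stably carrying a luciferase reporter gene fusion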

Cc1ccc(NC(=O)CSc2nnc(CN3CCOCC3)n2C)cc1C
IC50 (Insulin-degrading enzyme): > 55.9 µM (not active)
IC50 [1]: > 55.7 µM (not active)

COc1ccc(NC2=NC(=O)/C(=C/c3ccc(O)c(OC)c3)S2)cc1
IC50 (Insulin-degrading enzyme): > 6.22 µM (active)
IC50 [2]: 17.9 µM (active)
CC50 [3]: 95.4 µM (active)
IC50 [1]: 38.1 µM (not active)

C/N=C1\C(=O)c2ccccc2C(O)=C1N(C(C)=O)c1ccc(Br)cc1
AC50 (INS1): 0.548 µM (active)
EC50 [4]: 8.7 µM (active)
EC50 [5]: 0.688 µM (active)
IC50 [6]: 5.7 µM (active)
IC50 [7]: > 50 µM (not active)
EC50 (Streptococcus): > 150 µM (not active)
EC50 [8]: 0.594 µM (active)
EC50 [9]: 6.44 µM (active)
EC50 (Protein RecA): 0.795 µM (active)
EC50 (BJ): 2.38 µM (active)
EC50 [10]: 3.59 µM (inconclusive)
AC50 [11]: 11.3 µM (active)
EC50 [12]: 11.4 µM (active)
EC50 [13]: 0.242 µM (active)
EC50 (Streptokinase A): 23.9 µM (active)

Cc1ccc(C(=O)Nc2cccc(C(F)(F)F)c2)cc1Nc1[nH]cnc2ncnc1-2
EC50 [4]: < 0.1 µM (active)
EC50 (cells): 4.59 µM (active)
EC50 [14]: < 0.1 µM (active)
EC50 [15]: > 12 µM (not active)
CC50 [16]: 34.8 µM (active)
EC50 [17]: 1.22 µM (active)
EC50 [12]: 11.8 µM (active)
